Like-named read-outs stand apart in the source and are kept apart here. Where a SMILES comes first, the peptide text is derived from it. Bridges are numbered along the chain shown (N, C = ends). [ ]: non-standard residue; d: D form.
Experiments:
[1] = test system: MCF-7 human mammary carcinoma cell line; assay type: cell-based
Text: (§1) MXT estrogen-independen mouse mammary carcinoma cell line was obtained from Dr. Gunter Berndhart, University of Regensburg, Germany. All the other cell lines used in the determination of the antiproliferative activity of the compounds of this invention were obtained from the American Type Culture Collection (ATCC).
(§2) For the evaluation of the activity of the analogs, a colorimetric cytotoxicity assay in microtitration plates was used based on quantification of biomass by staining cells with crystal violet, which correlates very well with determination of cell numbers. (Reile et al.; Anal. Biochem. 187, 262-267, 1990; Bernhardt G. et al, J. Cancer Res. Clin. Oncol. (1992), 118, 35-43; Spruss Th. et al, J. Cancer Res. Clin. Oncol 117, 435-443, 1991; Gillies, R. J., Anal. Biochem. 159, 109-113, 1986; Kueng, W. et al.; Anal. Biochem., 182 16-19, 1989.)
(§3) One to two days after seeding cells in 96-well plates the culture medium is exchanged with fresh medium containing the compounds to be tested and fresh medium only for the control cultures. After varying time of incubation, cells are fixed with glutaric dialdehyde and stored under […] at 4° C. until the end of the experiment. Cells are stained with crystal violet and bound stain is extracted with 70% aqueous EtOH. Optical density is measured with EIA Reader (Bio-Tek Instruments) or Biomek 1000 (Beckman) at 590 nm or 600 nm, respectively. Each data point represents the mean value of eight culture wells. T/C values are calculated as T/C=(T-C0)/(C-C0) where T=optical density of treated cultures, C=optical density of control (untreated) cultures, C0 =optical density of cultures at the start of incubation (t=0).
Cells were incubated in IMEM media containing 5% Hl:DCC-FBS (heat inactivated dextran coated charcoal treated fetal bovine serum) on 96 well plates. Relative cell number in treated and control plates was determined by the crystal violet staining method and was expressed as T/C values where T/C=T-C0 /C-C0×100 [T=absorbance of treated cultures, C= absorbance of control cultures, C0 =absorbance of cultures at the start of incubation (t=0). The measured absorbance is proportionate to the cell number.]

[2] = test system: estrogen independent MXT mouse mammary cancers; test: Earlier experiment with Q2 daily dosing (tumor growth, survival)
[3] = test system: estrogen independent MXT mouse mammary cancers; test: Effect of cytotoxic LH-RH analogs on estrogen independent MXT mouse mammary cancers (KS-47); assay type: in vivo
Method: MXT (3.2) ovex tumor pieces (1 mm^3) were transplanted in female B6 D2 F1 mice. The treatment started one day after transplantation and was continued for 12 days by i.p. injections once a day. Tumors were measured on days 10, 14 and 18, and tumor volume was calculated.

[4] = test system: growth hormone release from superfused rat pituitary cells; test: Inhibition of hGH-RH(1-29)NH2 induced GH release, rat pituitary superfusion system; assay type: cell-based
Method: Accordingly, this method was used to compare the cytotoxic somatostatin analogs of the present invention to their parent carrier molecules with respect to their hormonal activities.
In rat pituitary superfusion system, the somatostatin analogs were administered for 3 min at 1 nM dose simultaneously with 1 nM hGH-RH(1-29)NH2. The infusion of the somatostatin analogs was maintained for another 6 min. GH responses to 3 min administration of 1 nM hGH-RH(1-29)NH2 were determined during the perfusion of the somatostatin analogs (0 min) and 30, 60 and 90 min after the administration stopped.

[5] = test system: MIIA PaCa-2 Human Pancreatic Cancer Cell Line; test: Growth of MIIA PaCa-2 cells in vitro (crystal violet T/C); assay type: cell-based
Text: as §2, §3
Cells were incubated in RPMI 1640 media containing 10% fetal bovine serum on 96 well plates. [drawing 8]

[6] = test system: MXT estrogen independent mouse mammary carcinoma cell line; test: In vitro cytotoxic activity, crystal violet colorimetric assay on MXT; assay type: cell-based
Text: as §1, §2, §3

[7] = test system: estrogen independent MXT mouse mammary cancers; test: Single treatment of estrogen independent MXT mouse mammary cancers (KS-55); assay type: in vivo
Method: In order to determine the maximum tolerated doses and compare the effects, MXT (3.2) ovex tumor pieces (1 mm^3) were implanted s.c. in female B6 D2 F1 mice. One day after transplantation the mice were randomly divided into groups of five animals and they were treated with a single injection i.p. The groups and doses are shown in the Table 25-1. […] The compounds were dissolved in 0.1% TFA (pH: 2.0). Tumor volume was measured on days 10, 13, 17, and 20.

[8] = test system: CFPAC-1 Human Pancreatic Cancer Cell; test: Growth of CFPAC-1 cells in vitro (crystal violet T/C); assay type: cell-based
Text: as §2, §3

[9] = test system: estrogen independent MXT mouse mammary cancers; test: Treatment of estrogen independent MXT mouse mammary cancers (KS-49); assay type: in vivo; details: for Average survival: 520 nmol/inj. i.p., 3 weeks, total 1560 nmol (Group 13)
Text: In order to compare the tumor inhibitory activity of cytotoxic doxorubicin derivative, Q6 and its targeted cytotoxic peptide conjugate, Q6^14 gL as well as the well known antineoplastic agent, DOX and to determine the optimal way of administration and the nontoxic doses, LH-RH receptor positive MXT (3.2) ovex tumor pieces (1 mm^3) were implanted s. c. in female B6 D2 F1 mice. One day after transplantation the mice were randomly divided into groups of five animals and the treatment started. The compounds were dissolved in 0.1% trifluoroacetic acid (pH 2) and given intraperitoneally.

[10] = Table 17-1, 10^-8 M; incubation 70 hr
[11] = Table 17-1, 10^-8 M; incubation 120 hr
[12] = Table 17-1; 3 × 10^-8 M; incubation 70 hr
[13] = Table 17-1; 3 × 10^-8 M; incubation 120 hr
[14] = Table 17-1; 10^-8 M; incubation 70 hr
[15] = Table 17-1; 10^-8 M; incubation 120 hr
[16] = daily dose of 30 nmol (equimolar) i.p. for 12 days
[17] = 0 min (during perfusion of 1 nM somatostatin analog), percentage of GH release before analog
[18] = 30 min after infusion of 1 nM somatostatin analog
[19] = 60 min after infusion of 1 nM somatostatin analog
[20] = single i.p. injection 650 nmol/20 g
[21] = single i.p. injection 700 nmol/20 g
[22] = single i.p. injection 750 nmol/20 g

## COc1cccc2c1C(=O)c1c(O)c3c(c(O)c1C2=O)C[C@@](O)(C(=O)CO)C[C@@H]3O[C@H]1C[C@H](N2CCCC2)[C@H](O)[C@H](C)O1.O=C(O)C(F)(F)F [Compound Q2, 3'-deamino-3'-(pyrrolidine-1"-yl)doxorubicin]
[1]; [10]
  T/C Value: -26
[1]; [11]
  T/C Value: -19
[1]; [12]
  T/C Value: 25
[1]; [13]
  T/C Value: 17
[1]; [14]
  T/C Value: 97
[1]; [15]
  T/C Value: 94
[2]; 20 nmol daily dose for 17 days
  Effect on tumor growth: only a moderate inhibitory effect on tumor growth
[2]; 40 nmol dose
  Mean survival: 14.6 days
  Toxicity: toxic
[3]; [16]
  Effect on tumor growth: strong inhibitory effect on tumor growth
  Mean survival after transplantation: 17.9 days
  Mean tumor volume on day 10: 153 mm^3
  Mean tumor volume on day 14: 144 mm^3
  Mean tumor volume on day 18: 137 mm^3
[3]; daily dose of 30 nmol i.p. for 12 days
  Toxicity: severe toxicity

## C[C@@H](O)[C@H](NC(=O)[C@@H]1CSSC[C@H](NC(=O)[C@H](N)Cc2c[nH]c3ccccc23)C(=O)N[C@@H](Cc2ccccc2)C(=O)N[C@H](Cc2c[nH]c3ccccc23)C(=O)N[C@@H](CCCCN)C(=O)N[C@@H]([C@@H](C)O)C(=O)N1)C(N)=O [Compound S-98] (H-[dW]CF[dW]KTCT-NH2; disulfide 2-7)
[4]; [17]
  GH release induced by 3 min administration of 1 nM hGH-RH(1-29)NH2: 2.9%
[4]; [18]
  GH release induced by 3 min administration of 1 nM hGH-RH(1-29)NH2: 94.7%
[4]; [19]
  GH release induced by 3 min administration of 1 nM hGH-RH(1-29)NH2: 117.6%
[5]; 10^-6 M, incubation 28 h
  T/C Value: 96
[5]; 10^-6 M, incubation 76 h
  T/C Value: 98

## CC(C)[C@@H]1NC(=O)[C@H](CCCCN)NC(=O)[C@@H](Cc2c[nH]c3ccccc23)NC(=O)[C@H](Cc2ccc(O)cc2)NC(=O)[C@@H](NC(=O)[C@H](N)Cc2ccccc2)CSSC[C@@H](C(=O)N[C@H](C(N)=O)[C@@H](C)O)NC1=O [Compound S-121]
[4]; [17]
  GH release induced by 3 min administration of 1 nM hGH-RH(1-29)NH2: 0%
[4]; [18]
  GH release induced by 3 min administration of 1 nM hGH-RH(1-29)NH2: 90%
[4]; [19]
  GH release induced by 3 min administration of 1 nM hGH-RH(1-29)NH2: 89.7%
[5]; 10^-6 M, incubation 28 h
  T/C Value: 76
[5]; 10^-6 M, incubation 76 h
  T/C Value: 96

## COc1cccc2c1C(=O)c1c(O)c3c(c(O)c1C2=O)C[C@@](O)(C(=O)CO)C[C@@H]3O[C@H]1C[C@H](N)[C@H](O)[C@H](C)O1 [Doxorubicin, doxorubicin]
[6]; 3 × 10^-8 M, 26 hr
  T/C value on MXT cell line: 90
[6]; 3 × 10^-8 M, 50 hr
  T/C value on MXT cell line: 60
[6]; 10^-7 M, 26 hr
  T/C value on MXT cell line: 59
[6]; 10^-7 M, 50 hr
  T/C value on MXT cell line: 43
[6]; 10^-8 M, 26 hr
  T/C value on MXT cell line: 85
[6]; 10^-8 M, 50 hr
  T/C value on MXT cell line: 74
[7]; dose of 650 nmol/20 g mouse (as printed in text)
  Suppression of tumor growth: significantly less effective
[7]; single dose of 650 nmol/20 g mouse (as printed in text)
  Toxicity: highly toxic
[7]; [20]
  Average survival: 13.6 days
  Number of tumorous mice/number of surviving mice Day 10: 3/3
  Number of tumorous mice/number of surviving mice Day 13: 2/2
  Number of tumorous mice/number of surviving mice Day 17: 1/1
  Number of tumorous mice/number of surviving mice Day 20: 1/1
[7]; [21]
  Average survival: 15.2 days
  Number of tumorous mice/number of surviving mice Day 10: 2/3
  Number of tumorous mice/number of surviving mice Day 13: 2/3
  Number of tumorous mice/number of surviving mice Day 17: 2/2
[7]; [22]
  Average survival: 7.8 days
  Number of tumorous mice/number of surviving mice Day 10: 1/1
[8]; 3 × 10^-7 M, incubation 66 h
  T/C Value: 15
[8]; 3 × 10^-7 M, incubation 95 h
  T/C Value: 10
[8]; 3 × 10^-7 M, incubation 137 h
  T/C Value: 7
[8]; 3 × 10^-8 M, incubation 66 h
  T/C Value: 88
[8]; 3 × 10^-8 M, incubation 95 h
  T/C Value: 73
[8]; 3 × 10^-8 M, incubation 137 h
  T/C Value: 49
[8]; 10^-6 M, incubation 66 h
  T/C Value: -7
[8]; 10^-6 M, incubation 95 h
  T/C Value: -6
[8]; 10^-6 M, incubation 137 h
  T/C Value: -4
[8]; 10^-7 M, incubation 66 h
  T/C Value: 52
[8]; 10^-7 M, incubation 95 h
  T/C Value: 32
[8]; 10^-7 M, incubation 137 h
  T/C Value: 20
[1]; [10]
  T/C Value: 54
[1]; [11]
  T/C Value: 33
[1]; [12]
  T/C Value: 82
[1]; [13]
  T/C Value: 66
[1]; [14]
  T/C Value: 98
[1]; [15]
  T/C Value: 95
[1]; Table 18-1; 3 × 10^-8 M; 70 hr
  T/C Value on MCF-7 Cell Line: 82
[1]; Table 18-1; 3 × 10^-8 M; 120 hr
  T/C Value on MCF-7 Cell Line: 66
[1]; Table 18-1; 10^-7 M; 70 hr
  T/C Value on MCF-7 Cell Line: 54
[1]; Table 18-1; 10^-7 M; 120 hr
  T/C Value on MCF-7 Cell Line: 33
[1]; Table 18-1; 10^-8 M; 70 hr
  T/C Value on MCF-7 Cell Line: 98
[1]; Table 18-1; 10^-8 M; 120 hr
  T/C Value on MCF-7 Cell Line: 95
[9]
  Average survival: 20 days
[9]; listed as DOX
  Average survival: 20.0 days
[9]; toxic dose, total amount 1560 nmol
  Eradication of the tumor: could not eradicate the tumor
[5]; 10^-6 M, incubation 28 h
  T/C Value: -28
[5]; 10^-6 M, incubation 76 h
  T/C Value: -7
[5]; 10^-7 M, incubation 28 h
  T/C Value: 64
[5]; 10^-7 M, incubation 76 h
  T/C Value: 10
[5]; 10^-8 M, incubation 28 h
  T/C Value: 95
[5]; 10^-8 M, incubation 76 h
  T/C Value: 71

From US6184374A, “Targeted cytotoxic anthracycline analogs” (priority 1998, dated 2001)
